Test results as given in publication PMC7397144, “Alkyl and Aryl Derivatives Based on p-Coumaric Acid Modification and Inhibitory Action against Leishmania braziliensis and Plasmodium falciparum” (Molecules, 2020).
Values after ≈ are worked out from the molar mass of the structure shown. Where a name gives a salt, the structure may show the parent alone. Read-outs that look alike come from different tables or passages of the source.

Assays:
[1] = test system: Leishmania braziliensis amastigotes; experiment: In vitro antileishmanial activity, intracellular amastigotes (EGFP, flow cytometry); format: cell-based; conditions: intracellular amastigotes in U-937 cells, 72 h, mean ± SD
Protocol: The activities of the derivatives in L. braziliensis intracellular amastigotes, transfected with the green fluorescent protein gene (MHOM/CO/88/UA301-EGFP) were evaluated. Initially, human U-937 cells at a density of 3 × 10^5 cells/mL in RPMI 1640 and 0.1 μg/mL PMA (phorbol-12-myristate-13-acetate) were dispensed in a 24-well microplate and incubated at 37 °C, and 5% CO2. At 72 h of incubation, the cells were infected with growing (stationary phase) promastigotes; 15 parasites per cell. The plates were incubated at 34 °C and 5% CO2 for 3 h and the cells then washed twice with phosphate buffer solution (PBS) to eliminate non-internalized parasites. Fresh RPMI-1640 was added to each well (1 mL) and the plates were incubated again to complete the infection. […] The cells were then removed from the bottom plate with a trypsin/EDTA solution (250 mg), and centrifuged at 1100 rpm for 10 min at 4 °C; the supernatant was discarded and the cells were washed with 1 mL of cold PBS and centrifuged twice at 1100 rpm for 10 min at 4 °C. After this final wash, the supernatant was discarded and the cells were suspended in 500 μL of PBS.
The cells were run in a flow cytometer (Cytomics FC 500MPL), reading at 488 nm (exciting) and 525 nm (emitting) over an argon laser, and counting 10,000 events. Infected cells were determined according to green fluorescence events (parasites). Infected cells exposed to the control drug (amphotericin B) were used as antileishmanial activity controls (positive control). Infected cells incubated in the absence of any compound or drug were used as infection controls (negative control). Non-specific fluorescence was corrected by subtracting fluorescence from unstained cells. All determinations were performed in triplicate, in at least two independent experiments.
(§1) Data for percentages of parasite reduction or inhibition were used to calculate the EC50 using Probit linear regression modeling. […] The selectivity index (SI) was calculated dividing cytotoxic activity by anti-parasitic activity using the following formula: SI = CL50 ÷ CE50.

[2] = in vitro
Protocol: The compounds were analyzed for viability of the human pro-monocytic cell line U-937 (ATCC CRL- 1593.2TM) using an MTT (3-(4,5-dimethylthiazol-2-yl)-2,5- diphenyltetrazolium bromide) assay based on a previously described methodology, assessing cytotoxic activity. The resulting compounds were determined by measuring mitochondrial dehydrogenase activity, adding […] of MTT solution (0.5 mg/mL) and incubation at 37 °C for 3 h. Cell viability was defined from the quantity of formazan produced and the intensity of color (absorbance) registered through optical density (O.D.) obtained at 570 nm in a (VarioskanTM Flash Multimode Reader—Thermo Scientific, Waltham, MA, USA) spectrophotometer. As a negative control, isolated cells were cultured (without the compounds) to observe viability. […] We performed two independent tests with each concentration, in triplicate.
Cytotoxicity was determined according to the viability and mortality percentages obtained in each experimental condition (synthesized compounds, amphotericin B, benznidazole, chloroquine, and culture medium). Viability percentages were first calculated using Equation (1). (1) % Viability=O.D exposed cells÷O.D Control cells × 100 Then, cell growth inhibition percentage was calculated as 100 - % viability.
The cell growth inhibition percentages were used to calculate median lethal concentrations (LC50) using Probit analysis.

[3] = test system: Plasmodium falciparum 3D7; experiment: In vitro antiplasmodial activity (LDH, Malstat); format: cell-based; conditions: for EC50: Plasmodium falciparum
Protocol: Cultures of asynchronous P. falciparum 3D7 strains were adjusted for 0.5% parasitemia and 1% hematocrit in RPMI medium enriched with 3% lipid-rich bovine serum albumin—Albumax II. […] The plates were incubated for 48 h at 37 °C in an atmosphere of N2 (90%), CO2 (5%) and O2 (5%). After incubation, the parasites were harvested and subjected to three 20-min freeze-thaw cycles. At the same time, 100 µL of Malstat reagent (400 µL of Triton X-100 in 80 mL of deionized water, 4 g of L-lactate, 1.32 g of Tris buffer, and 0.022 g of adenine acetylpyridine dinucleotide in 200 mL of deionized water; pH 9.0), and […] of NBT/PES solution (0.16 g of nitroblue-tetrazolium salt, and 0.08 g of phenazine sulfate in 100 mL of deionized water) were added to each well of an additional 96-well plate. After freezing and thawing cycles, the culture in each of the wells on the first plate was re-suspended by pipetting, and 15 µL was removed from each well and added to the corresponding well on the additional plate (containing the Malstat and NBT/PES reagents). After one hour of incubation in the dark, the color development of the lactate dehidrogenase (LDH) reaction was read on a spectrofluorometer (Varioskan, Thermo, Waltham, MA, USA) at 650 nm. The color intensity in each experimental condition was recorded in fluorescent units (F.U). Non-specific fluorescence was corrected by subtracting F.U. from the blanks. The entire experiment was performed in triplicate in at least two independent experiments. Chloroquine (QC) was used as a positive control and the culture medium was used as a negative control.
The antiplasmodial activity of each compound was evaluated through reduction in parasite growth, calculated according to Equation (2):(2) % parasite inhibition=100−F.U exposed parasites÷F.U non exposed parasites × 100
as §1

[4] = test system: P. falciparum; set-up: method as in ref 42 = [42]; 42. Sudi S. Hassan W.R.M. Ali A.H. Basir R. Embi N. Sidek H.M. A derivative of cinnamic acid, methyl-4-hydroxycinnamate modulates inflammatory cytokine levels in malaria-infected mice through inhibiti; conditions: cited from earlier work
[5] = test system: Leishmania amazonensis; set-up: method as in Lima et al. (2016) 46; conditions: ref Lima et al. (2016) 46; cited from earlier work
[6] = test system: Trypanosoma brucei; set-up: method as in Steverding et al. (2016) 51; conditions: ref Steverding et al. (2016) 51; cited from earlier work
[7] = test system: L. amazonensis; set-up: method as in ref 41 = [41]; 41. Monzote L. Córdova W.H.P. García M. Piñón A. Setzer W.N. In-vitro and In-vivo Activities of Phenolic Compounds Against Cutaneous Leishmaniasis Rec. Nat. Prod. 2016 10 269 276; conditions: cited from earlier work
[8] = 3D7, 48 h, read-out: Plasmodium falciparum EC50, 3D7 strain, 48 h, mean ± SD

| SMILES | EC50 [1] | CC50 [2] | EC50 [3, 8] | other results |
| --- | --- | --- | --- | --- |
| C[C@@H]1[C@H](O)[C@@H](C)/C=C/C=C/C=C/C=C/C=C/C=C/C=C/[C@H](O[C@@H]2O[C@H](C)[C@@H](O)[C@H](N)[C@@H]2O)C[C@@H]2O[C@](O)(C[C@@H](O)C[C@@H](O)[C@H](O)CC[C@@H](O)C[C@@H](O)CC(=O)O[C@H]1C)C[C@H](O)[C@H]2C(=O)O [AMB, amphotericin B, reference compound] | 0.3 ± 0.07 µg/mL (≈ 0.325 µM) | 38.4 ± 6.3 µg/mL (≈ 41.6 µM) |  |  |
| CCN(CC)CCCC(C)Nc1ccnc2cc(Cl)ccc12 (stereo not drawn) [CQ, chloroquine diphosphate salt, reference compound] |  |  |  | EC50 ([3]; 3D7, 48 h, read-out: Plasmodium falciparum EC50): 3.35 ± 0.39 µg/mL |
| COC(=O)/C=C/c1ccc(O)cc1 [Compound 1, methyl p-coumarate] | 8.28 ± 0.14 µg/mL (≈ 46.5 µM) | 6.26 ± 0.03 µg/mL (≈ 35.1 µM) |  | EC50 ([3]; 3D7 strain, 48 h, mean ± SD, read-out: Plasmodium falciparum EC50): 64.6 ± 2.89 µg/mL (≈ 362 µM); activity against P. falciparum [4]: presents activity |
| CCOC(=O)/C=C/c1ccc(O)cc1 [Compound 2, ethyl p-coumarate] | 4.91 ± 0.64 µg/mL (≈ 25.5 µM) | 1.06 ± 1.08 µg/mL (≈ 5.51 µM) | 110 ± 30.8 µg/mL (≈ 574 µM) |  |
| CCCOC(=O)/C=C/c1ccc(O)cc1 [Compound 3, propyl p-coumarate] | 6.3 ± 1.14 µg/mL (≈ 30.5 µM) | 11.9 ± 0.8 µg/mL (≈ 57.7 µM) | 139 ± 4.07 µg/mL (≈ 674 µM) |  |
| CC(C)OC(=O)/C=C/c1ccc(O)cc1 [Compound 4, isopropyl p-coumarate] | 28.33 ± 0.27 µg/mL (≈ 137 µM) | 96.2 ± 18.9 µg/mL (≈ 467 µM) | 106 ± 9.97 µg/mL (≈ 514 µM) |  |
| COCCOC(=O)/C=C/c1ccc(O)cc1 [Compound 5, methoxy-ethyl p-coumarate] | 87 ± 18.1 µg/mL (≈ 391 µM) | 127 ± 16.5 µg/mL (≈ 570 µM) | 98.7 ± 17.7 µg/mL (≈ 444 µM) |  |
| CCCCOC(=O)/C=C/c1ccc(O)cc1 [Compound 6, butyl p-coumarate] | 323 ± 50 µg/mL (≈ 1470 µM) | 30.9 ± 6.32 µg/mL (≈ 140 µM) | 199 ± 7.9 µg/mL (≈ 903 µM) |  |
| CCCCCOC(=O)/C=C/c1ccc(O)cc1 [Compound 7, pentyl p-coumarate] | 32 ± 5.05 µg/mL (≈ 137 µM) | 16.1 ± 3.81 µg/mL (≈ 68.7 µM) | 156 ± 8.2 µg/mL (≈ 667 µM) | Plasmodium falciparum EC50 ([3]; 3D7 strain, 48 h, mean ± SD): 95.48 ± 1.84 µg/mL |
| CC(C)CCOC(=O)/C=C/c1ccc(O)cc1 [Compound 8, isopentyl p-coumarate] | 6.02 ± 0.22 µg/mL (≈ 25.7 µM) | 19.6 ± 1.76 µg/mL (≈ 83.6 µM) | 95.5 ± 1.84 µg/mL (≈ 408 µM) | Plasmodium falciparum EC50 ([3]; 3D7 strain, 48 h, mean ± SD): 156.37 ± 8.2 µg/mL |
| CCCCCCOC(=O)/C=C/c1ccc(O)cc1 [Compound 9, hexyl p-coumarate] | 4.14 ± 0.55 µg/mL (≈ 16.7 µM) | 11.2 ± 0.86 µg/mL (≈ 45.3 µM) | 206 ± 46.4 µg/mL (≈ 831 µM) |  |
| CCCCCCCCCCCCOC(=O)/C=C/c1ccc(O)cc1 [Compound 10, dodecyl p-coumarate] | 16.3 ± 0.49 µg/mL (≈ 49.1 µM) | 15.4 ± 1.84 µg/mL (≈ 46.4 µM) | 81.2 ± 8.54 µg/mL (≈ 244 µM) |  |
| Cc1ccc(COC(=O)/C=C/c2ccc(O)cc2)cc1 [Compound 11, 4-methylbenzyl p-coumarate] | 5.69 ± 0.3 µg/mL (≈ 21.2 µM) | 20.8 ± 3.47 µg/mL (≈ 77.6 µM) | 84 ± 15.3 µg/mL (≈ 313 µM) |  |
| CC(C)c1ccc(COC(=O)/C=C/c2ccc(O)cc2)cc1 [Compound 12, 4-isopropylbenzyl p-coumarate] | 11.2 ± 0.2 µg/mL (≈ 37.8 µM) | 35.2 ± 13.9 µg/mL (≈ 119 µM) | 93.7 ± 14.2 µg/mL (≈ 316 µM) |  |
| CCOC(=O)/C=C/c1ccc(O)c(O)c1 [ethyl caffeate] |  |  |  | activity against Leishmania amazonensis [5]: no activity |
| CC(C)CCOC(=O)/C=C/c1ccc(O)c(O)c1 [isopentyl caffeate] |  |  |  | antiparasitic activity against Trypanosoma brucei [6]: antiparasitic activity |
| O=C(O)C=Cc1ccc(O)cc1 [p-Coumaric acid] |  |  |  | antiparasitic activity against L. amazonensis [7]: presents antiparasitic activity |
